The text below walks through data of ChEMBL document CHEMBL5223181, “Incorporation of an Isohexide Subunit Improves the Drug-like Properties of Bioactive Compounds” (ACS Med Chem Lett, 2023).

A short description of data set [1]: Dissociation constant, pKa of the compound at 10 mM incubated for 16 hrs with shaking by HPLC-UV analysis. It is filed as physicochemical.
Data set [2] can be described thus: Half life in C57BL/6 mouse plasma at 50 mg/kg,po and measured upto 24 hrs by LC-MS/MS analysis. It is filed as ADME, organism-based.
The nature of data set [3]: Solubility in simulated gastric fluid at pH 1.2 at 30 uM incubated for 90 mins by HPLC-UV analysis. The format is ADME.
Data set [4] can be described thus: Tmax in C57BL/6 mouse plasma at 50 mg/kg,po and measured upto 24 hrs by LC-MS/MS analysis. It is filed as ADME, organism-based.
A short description of data set [5]: Apparent permeability across apical to basolateral side in dog MDCK-MDR1 cells at 5 uM incubated for 60 mins by LC-MS/MS analysis. The format is ADME, cell-based, Canis lupus familiaris.
The nature of data set [6]: Oral bioavailability in C57BL/6 mouse plasma at 50 mg/kg and measured upto 24 hrs by LC-MS/MS analysis. The format is ADME, organism-based.
The nature of data set [7]: Solubility in simulated intestinal fluid at pH 6.8 at 30 uM incubated for 90 mins by HPLC-UV analysis. The format is ADME.
A short description of data set [8]: Cmax in C57BL/6 mouse plasma at 50 mg/kg,po and measured upto 24 hrs by LC-MS/MS analysis. It is filed as ADME, organism-based. More on the design: dose 50 mg/kg, time < 24 hrs, route po.
Data set [9] is described as follows: AUC (0-6 hrs) in C57BL/6 mouse plasma at 50 mg/kg,po and measured upto 24 hrs by LC-MS/MS analysis. The format is ADME, organism-based. More on the design: dose 50 mg/kg, time < 24 hrs, route po.
A short description of data set [10]: Solubility of compound in PBS at pH 7.4 at 30 uM incubated for 90 mins by HPLC-UV analysis. It is filed as physicochemical.
Data set [11] can be described thus: Octanol/water partition coefficient, logD of the compound at pH 7.4 at 10 mM incubated for 16 hrs with shaking by HPLC-UV analysis. The format is physicochemical.
A short description of data set [12]: Cmax in C57BL/6 mouse at 61 mg/kg, po and measured upto 24 hrs by LC-MS/MS analysis. Conditions: in vivo. Details: dose 61 mg/kg, time < 24 hrs, route po. The format is ADME, organism-based.
Data set [13] in a line: Terminal half life in C57BL/6 mouse at 61 mg/kg, po and measured upto 24 hrs by LC-MS/MS analysis. It is filed as ADME, organism-based. Conditions: in vivo, read-out: beta t1/2 (converted).
Data set [14] can be described thus: AUC (0-t) in C57BL/6 mouse at 61 mg/kg, po and measured for 4 to 10 hrs by LC-MS/MS analysis. It is filed as ADME, organism-based. More on the design: time lower 4 hrs, dose 61 mg/kg, time upper 10 hrs, route po. Conditions: in vivo.
The nature of data set [15]: Solubility of compound in PBS at pH 9.0 at 30 uM incubated for 90 mins by HPLC-UV analysis. It is filed as physicochemical.
Data set [16] can be described thus: AUC (0-infinity) in C57BL/6 mouse at 61 mg/kg, po and measured upto 24 hrs by LC-MS/MS analysis. Details: dose 61 mg/kg, time < 24 hrs, route po. The format is ADME, organism-based. Conditions: in vivo.
Data set [17] can be described thus: Solubility in simulated intestinal fluid at pH 6.8 at 30 uM incubated for 90 mins in presence of 0.5% SDS by HPLC-UV analysis. The format is ADME.
A short description of data set [18]: Solubility in simulated gastric fluid at pH 1.2 at 30 uM incubated for 90 mins in presence of 0.5% SDS by HPLC-UV analysis. The format is ADME.
The nature of data set [19]: AUC (0-infinity) in C57BL/6 mouse at 80 mg/kg, po and measured upto 24 hrs by LC-MS/MS analysis. The format is ADME, organism-based. Details: time < 24 hrs, dose 80 mg/kg, route po. Conditions: in vivo.
The target of data set [20] is Epidermal growth factor receptor (Homo sapiens, UniProt P00533). The experiment in a line: Inhibition of human EGFR.
The nature of data set [21]: Terminal half life in C57BL/6 mouse at 80 mg/kg, po and measured upto 24 hrs by LC-MS/MS analysis. It is filed as ADME, organism-based. Conditions: in vivo, read-out: beta t1/2 (converted).
The nature of data set [22]: Apparent permeability of compound at 20 mM and measured after 16 hrs by PAMPA assay. The format is ADME. (In PAMPA a lipid-coated filter parts donor from acceptor wells.)
The nature of data set [23]: AUC (0-t) in C57BL/6 mouse at 80 mg/kg, po and measured for 4 to 10 hrs by LC-MS/MS analysis. The format is ADME, organism-based. More on the design: time upper 10 hrs, dose 80 mg/kg, time lower 4 hrs, route po. Conditions: in vivo.
A short description of data set [24]: Cmax in C57BL/6 mouse at 80 mg/kg, po and measured upto 24 hrs by LC-MS/MS analysis. It is filed as ADME, organism-based. More on the design: time < 24 hrs, dose 80 mg/kg, route po. Conditions: in vivo.
Data set [25] can be described thus: Prodrug conversion in C57BL/6 mouse colon assessed as (S)-2-(2-chloro-6-methylbenzamido)-3-(4-(1,3,6-trimethyl-2,4-dioxo-1,2,3,4-tetrahydropyrimidin-5-yl)phenyl)propanoic acid metabolite level at 100 mg/kg, po and measured after 3 hrs LC-MS/MS analysis. It is filed as ADME, organism-based. Conditions: in vivo.
Data set [26] can be described thus: Prodrug conversion in C57BL/6 mouse plasma assessed as (S)-2-(2-chloro-6-methylbenzamido)-3-(4-(1,3,6-trimethyl-2,4-dioxo-1,2,3,4-tetrahydropyrimidin-5-yl)phenyl)propanoic acid metabolite level at 100 mg/kg, po and measured after 6 hrs LC-MS/MS analysis. Conditions: in vivo. It is filed as ADME, organism-based.
Data set [27] in a line: Prodrug conversion in C57BL/6 mouse colon assessed as (S)-2-(2-chloro-6-methylbenzamido)-3-(4-(1,3,6-trimethyl-2,4-dioxo-1,2,3,4-tetrahydropyrimidin-5-yl)phenyl)propanoic acid metabolite level at 100 mg/kg, po and measured after 6 hrs LC-MS/MS analysis. The format is ADME, organism-based. Conditions: in vivo.
Data set [28] is described as follows: Prodrug conversion in C57BL/6 mouse plasma assessed as half life of (S)-2-(2-chloro-6-methylbenzamido)-3-(4-(1,3,6-trimethyl-2,4-dioxo-1,2,3,4-tetrahydropyrimidin-5-yl)phenyl)propanoic acid metabolite at 63.5 mg/kg,po and measured upto 24 hrs by LC-MS/MS analysis. The format is ADME, organism-based. Conditions: in vivo.
A short description of data set [29]: Prodrug conversion in C57BL/6 mouse plasma assessed as(S)-2-(2-chloro-6-methylbenzamido)-3-(4-(1,3,6-trimethyl-2,4-dioxo-1,2,3,4-tetrahydropyrimidin-5-yl)phenyl)propanoic acid metabolite level at 100 mg/kg, po and measured after 3 hrs LC-MS/MS analysis. It is filed as ADME, organism-based. Conditions: in vivo.
Data set [30] is described as follows: Prodrug conversion in C57BL/6 mouse plasma assessed as Tmax of (S)-2-(2-chloro-6-methylbenzamido)-3-(4-(1,3,6-trimethyl-2,4-dioxo-1,2,3,4-tetrahydropyrimidin-5-yl)phenyl)propanoic acid metabolite at 63.5 mg/kg,po and measured upto 24 hrs by LC-MS/MS analysis. It is filed as ADME, organism-based. Conditions: in vivo.
The nature of data set [31]: Oral bioavailability in C57BL/6 mouse plasma at 63.5 mg/kg and measured upto 24 hrs by LC-MS/MS analysis. The format is ADME, organism-based.
A short description of data set [32]: Prodrug conversion in C57BL/6 mouse plasma assessed as Cmax of (S)-2-(2-chloro-6-methylbenzamido)-3-(4-(1,3,6-trimethyl-2,4-dioxo-1,2,3,4-tetrahydropyrimidin-5-yl)phenyl)propanoic acid metabolite at 63.5 mg/kg,po and measured upto 24 hrs by LC-MS/MS analysis. The format is ADME, organism-based. Details: dose 63.5 mg/kg, time < 24 hrs, route po. Conditions: in vivo.

Data set [33] can be described thus: Prodrug conversion in C57BL/6 mouse plasma assessed as AUC (0 to 6 hrs) of (S)-2-(2-chloro-6-methylbenzamido)-3-(4-(1,3,6-trimethyl-2,4-dioxo-1,2,3,4-tetrahydropyrimidin-5-yl)phenyl)propanoic acid metabolite at 63.5 mg/kg,po and measured upto 24 hrs by LC-MS/MS analysis. More on the design: time < 24 hrs, dose 63.5 mg/kg, route po. The format is ADME, organism-based. Conditions: in vivo.

Values after ≈ are worked out from the molar mass of the structure shown.

The term pKa denotes the negative logarithm of the acid dissociation constant. Usually solubility stands for the concentration that dissolves in the medium under given conditions. The Tmax is the time at which the peak concentration occurs. Usually Papp A→B stands for how fast a substance crosses the layer from the apical side. The bioavailability is the share of a dose that reaches the circulation, judged against a reference dose that is usually intravenous. A higher bioavailability goes with much systemic uptake. In general, Cmax refers to the peak of the concentration-time curve. The term AUC(0-t) denotes exposure summed from dosing to a finite time, without extrapolation to infinity. A lower AUC(0-t) goes with low exposure. Usually logD stands for the decadic logarithm of the distribution of all forms, ionised or not, between an organic phase and buffer at a given pH. A high value points to a more lipophilic compound. The term AUC(0-inf) denotes the area under the concentration-time curve extrapolated to infinity. A higher AUC(0-inf) goes with more exposure. As usually defined, the IC50 is the concentration needed to halve the response being measured. Low values mean inhibition by little substance, high ones a need for much substance. What is called Papp is the rate of passage across a membrane or cell layer, normalised by area and donor concentration. One may read the AUC as the area under the concentration-time curve, a measure of exposure.

Chain of Epidermal growth factor receptor (P00533 whole entry): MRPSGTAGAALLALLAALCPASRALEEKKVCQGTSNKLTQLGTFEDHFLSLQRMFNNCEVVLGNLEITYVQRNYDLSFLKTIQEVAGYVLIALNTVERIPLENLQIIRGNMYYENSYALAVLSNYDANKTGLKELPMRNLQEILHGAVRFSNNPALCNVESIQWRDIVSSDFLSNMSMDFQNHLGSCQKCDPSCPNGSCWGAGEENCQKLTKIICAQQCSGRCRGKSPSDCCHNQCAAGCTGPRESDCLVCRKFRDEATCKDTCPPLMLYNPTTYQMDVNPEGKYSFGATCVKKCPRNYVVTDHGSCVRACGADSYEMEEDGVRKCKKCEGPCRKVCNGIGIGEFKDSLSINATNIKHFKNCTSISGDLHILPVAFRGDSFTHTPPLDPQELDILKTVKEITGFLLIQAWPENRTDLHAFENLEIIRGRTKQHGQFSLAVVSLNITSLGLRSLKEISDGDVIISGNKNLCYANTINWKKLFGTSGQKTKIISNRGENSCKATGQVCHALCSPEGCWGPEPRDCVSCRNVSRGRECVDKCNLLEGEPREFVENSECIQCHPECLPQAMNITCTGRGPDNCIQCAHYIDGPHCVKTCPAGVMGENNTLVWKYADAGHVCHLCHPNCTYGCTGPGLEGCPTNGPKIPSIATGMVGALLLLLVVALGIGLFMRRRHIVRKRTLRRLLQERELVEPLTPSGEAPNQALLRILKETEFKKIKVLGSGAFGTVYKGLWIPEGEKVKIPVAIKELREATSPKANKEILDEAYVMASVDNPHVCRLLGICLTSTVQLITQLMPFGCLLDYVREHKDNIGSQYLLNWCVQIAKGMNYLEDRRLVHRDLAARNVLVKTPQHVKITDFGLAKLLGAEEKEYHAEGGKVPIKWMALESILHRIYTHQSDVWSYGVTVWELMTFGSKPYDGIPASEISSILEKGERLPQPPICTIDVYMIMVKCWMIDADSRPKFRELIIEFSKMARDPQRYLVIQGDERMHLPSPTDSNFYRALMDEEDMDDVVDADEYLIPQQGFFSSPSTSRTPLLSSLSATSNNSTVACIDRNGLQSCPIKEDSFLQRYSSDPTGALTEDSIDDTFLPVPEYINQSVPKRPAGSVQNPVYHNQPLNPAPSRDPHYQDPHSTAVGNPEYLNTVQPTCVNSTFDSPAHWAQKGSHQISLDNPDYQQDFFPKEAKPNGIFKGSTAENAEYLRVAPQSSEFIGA

`Cc1cccc(Cl)c1C(=O)N[C@@H](Cc1ccc(-c2c(C)n(C)c(=O)n(C)c2=O)cc1)C(=O)O`: the pKa at 16 h, 10000 µM in data set [1] was 3.4. Further, in [2], the half-life is 40.2 min. Further, the solubility at 1.5 h, 30 µM is 94.7 µg/mL (≈ 202 µM) in [3], 91.9 µg/mL (≈ 196 µM) in data set [7] and 95.4 µg/mL (≈ 203 µM) in data set [10]. For the same molecule, in [4], the Tmax is 1 h. Also, the Papp A→B at 1 h, 5 µM in data set [5] was 1.3 ×10⁻⁶ cm/s. Besides, in data set [6], the bioavailability was < 1%. Besides, the Cmax in [8] is 425 ng/mL. The molecule also came in with an AUC(0-t) at 24 h in data set [9] of 616 ng·h/mL. The logD at 16 h, 10000 µM in data set [11] is -1.1.

`COc1cc2ncnc(Nc3ccc(F)c(Cl)c3)c2cc1OC`: the highest concentration (Cmax) in data set [12] turned out to be 7440 ng/mL. The same molecule displayed a pKa at 16 h, 10000 µM in data set [1] of 4.51. Moreover, in data set [13], the half-life was 114 min. The solubility at 1.5 h, 30 µM in data set [3] is 49.4 µg/mL (≈ 148 µM); in data set [15], 1.53 µg/mL (≈ 4.58 µM); in data set [17], 63.9 µg/mL; in data set [18] it was 23.6 µg/mL; in data set [7], 51.7 µg/mL (≈ 155 µM); in data set [10], 1.3 µg/mL (≈ 3.9 µM). Moreover, in data set [14], the AUC(0-t) came to 25500 ng·h/mL. In data set [16], this molecule returned an AUC(0-inf) of 26300 ng·h/mL.

On to `COc1cc2ncnc(Nc3ccc(O[C@H]4CO[C@H]5[C@@H]4OC[C@@H]5O)c(Cl)c3)c2cc1OC`, for which, in data set [1], the pKa at 16 h, 10000 µM is 5. In addition, the AUC(0-inf) in [19] was determined as 44500 ng·h/mL. The half-life in [13] and in [21] was 71.4 min each time. Also, the solubility at 1.5 h, 30 µM was 87.9 µg/mL (≈ 191 µM) in data set [3]; 45.4 µg/mL (≈ 98.7 µM) in data set [15]; 80.8 µg/mL in data set [17]; 56 µg/mL in data set [18]; 65.4 µg/mL (≈ 142 µM) in [7]; 19.8 µg/mL (≈ 43.1 µM) in data set [10]. This molecule also yielded an IC50 in [20] of 5.3 nM. Moreover, the Papp at 16 h, 20000 µM in data set [22] came to 7.45 ×10⁻⁶ cm/s. Moreover, in data set [23], the AUC(0-t) was 44500 ng·h/mL. Besides, the Cmax in data set [24] stood at 30100 ng/mL.

With `Cc1cccc(Cl)c1C(=O)N[C@@H](Cc1ccc(-c2c(C)n(C)c(=O)n(C)c2=O)cc1)C(=O)O[C@H]1CO[C@H]2[C@@H]1OC[C@@H]2O`, the pKa at 16 h, 10000 µM in data set [1] turned out to be 7.9. For the same molecule, the Drug metabolism was determined as 200000 ng/g in [25], 200 ng/mL in data set [26], 100000 ng/g in data set [27] and 500 ng/mL in data set [29]. Further, the t1/2 in [28] amounted to 1.63 h. In addition, the solubility at 1.5 h, 30 µM is 126 µg/mL (≈ 210 µM) in [3], 99.6 µg/mL (≈ 167 µM) in data set [7] and 107 µg/mL (≈ 179 µM) in [10]. Moreover, in [30], the Tmax was 15 min. This molecule also yielded a bioavailability in data set [31] of 12%. Moreover, the Papp A→B at 1 h, 5 µM in data set [5] amounted to 2.5 ×10⁻⁶ cm/s. The Papp at 16 h, 20000 µM in [22] was 1.68 ×10⁻⁶ cm/s. Also, in [32], the highest concentration (Cmax) was 3193 ng/mL. The AUC in data set [33] came to 2100 ng·h/mL. In [11], this molecule yielded a logD at 16 h, 10000 µM of 1.2.
